Experimental findings from article PMC11059415 (Heliyon, 2024) are described below.

This assay has as its target T1, Sp-Fld (Sp-flavodoxin) (Streptococcus pneumoniae, UniProt Q8DPG4).
T1 sequence (Q8DPG4 1-147): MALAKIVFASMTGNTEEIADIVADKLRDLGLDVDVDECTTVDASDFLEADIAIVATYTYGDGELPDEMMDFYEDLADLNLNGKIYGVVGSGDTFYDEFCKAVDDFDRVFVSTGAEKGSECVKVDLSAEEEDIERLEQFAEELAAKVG
Put plainly: isothermal titration calorimetry. The class given is binding.

`N[C@@H](Cc1cc(I)c(Oc2cc(I)c(O)c(I)c2)c(I)c1)C(=O)O` [Cp1, L-thyroxine] showed a Kd of 2.5 ± 0.4 µM.
